# In US10905680B2, “Methods of treatment for cholestatic and fibrotic diseases” (Genfit, priority 2016, dated 2021):
# Tests used:
# [1] = tested on: human renal interstitial fibroblasts (HRIF); test: TGFβ1-induced expression of α-SMA protein in human renal fibroblasts (ELISA); format: cell-based; conditions: TGFβ1 3 ng/ml, 48 hours
# Protocol: Serum-deprived Human Renal Interstitial Fibroblasts (HRIF) were preincubated for 1 hour with NTZ (A) or TZ (B) before the activation with the profibrogenic cytokine TGFβ1 (3 ng/ml). After 48 hours of incubation, the expression of α-SMA was measured by ELISA. The obtained values were normalized over TGFβ1 control. Data are presented as mean (quadruplicates)±SEM (Standard Error of Mean). […] For the activation experiments with TGFβ1, the HRIF were plated at a density of 6.5×10^3 cells per well in 384-well plates. The next day, cell culture medium was removed, and cells were washed with PBS (Invitrogen cat #14190). HRIF were deprived for 24 hours in serum-free, and FGS-free medium. For the treatments with NTZ or TZ, the serum-deprived HRIF were preincubated for 1 hour with the compounds followed by addition of the profibrogenic stimuli TGFβ1 (PeproTech cat #100-21, 3 ng/mL) in serum-free, -FGS-free medium for an additional 48 hour period. Finally, the cells were washed with PBS (Invitrogen, cat #14190) before the addition of 30 μl of lysis buffer (CelLytic™ MT reagent; Sigma #C3228). Plates were then incubated for 30 min on ice using a plate shaker, and subsequently stored at −20° C. The level of α-SMA was measured using a Sandwich ELISA. Briefly, the wells of an ELISA plate were first coated with the capture antibody (mouse monoclonal anti-ACTA2, Abnova) at 4° C. overnight. […]
# [2] = tested on: rat primary hepatic stellate cells (rHSC); test: TGFβ1-induced expression of α-SMA protein in rat HSC (ELISA); format: cell-based; conditions: TGFβ1 3 ng/ml, 48 hours
# Protocol: NTZ (A) or TZ (B) were added to serum-deprived rat HSC (rHSC) 1 hour before the activation with TGFβ1 (3 ng/ml). After 48 hours of incubation, the expression of α-SMA was measured by ELISA. The obtained values were transformed into percentage inhibition over TGFβ1 control. Data are presented as mean (triplicates)±standard deviation (SD). Statistical analyses were performed by one-way ANOVA followed by Bonferroni post-hoc tests, using Sigma Plot 11.0 software. [*: p<0.05; **: p<0.01; ***: p<0.001 (comparison versus TGFβ1 3 ng/mL group)]. The rat primary hepatic stellate cells (rHSC) (Innoprot) were cultured in STeCM medium (ScienCell cat #5301) that was supplemented with 2% fetal bovine serum (FBS, ScienCell cat #0010), 1% penicillin/streptomycin (ScienCell cat #0503) and stellate cell growth supplement (SteCGS; ScienCell cat #5352). For the activation experiments with TGFβ1, the rHSC were plated at a density of 10×10^3 cells per well in 96-well plates. The next day, cell culture medium was removed, and cells were washed with PBS (Invitrogen cat #14190). rHSC were deprived for 24 hours in serum-free and SteCGS-free medium. […] The level of α-SMA was measured using a Sandwich ELISA. […]
structure (smiles),measurement,setting,value
"O=C(Nc1ncc([N+](=O)[O-])s1)c1ccccc1O [TZ, 2-hydroxy-N-(5-nitro-2-thiazolyl)benzamide]",antifibrotic effects (α-SMA) in TGFβ-activated human renal interstitial fibroblasts,[1],significant and dose-dependent antifibrotic effects
same,α-SMA levels in TGFβ-activated HSC derived from rat,[2],reduced
